Consider 1 molecule from patent US20240317755A1, “HETEROCYCLIC COMPOUND, AND INTERMEDIATE THEREOF, PREPARATION METHOD THEREFOR AND USE THEREOF” (WUHAN LL SCIENCE AND TECHNOLOGY DEVELOPMENT CO., LTD., priority 2021, published 2024).

Data set [1] in a line: PK study of male SD rats after single intragastric administration (5% solutol). The note with it: rat, plasma, single PO compound 1-6 100 mg/kg; for AUC(0-inf) / AUC(0-t) / Cmax / MRT last / half-life: male, SD, po, 100 mg/kg. The data set is classed as in vivo. The method, then: Effect Example 2: PK Study of Male SD Rats after Single Intragastric Administration of Compound (Using 5% Solutol as a Solvent)
To explore the time-plasma concentration curves of the compound in the plasma of male rats after single intragastric administration of compound 1 (125 mg/kg) and compound 1-6 (100 mg/kg) of the present disclosure and to obtain PK parameters (Cmax, Tmax, AUClast, AUCinf, T1/2, MRT, etc.) of the rats after single administration of compound 1 and compound 1-6 of the present disclosure.
Rats: SD rats, SPF grade, 3 males, weight range of 180 to 200 g (source: Beijing Vital River Laboratory Animal Technology Co., Ltd., certificate number: 110011201109106028); • feeding conditions: ordinary animal house feeding, free access to food and water, 3 animals/cage rearing, 12/12 hours light/dark cycle adjustment (7:00 am/7:00 pm), temperature of 23±1° C.
Dispensing: After accurately weighing the compounds in the PO group, 5% solutol of the required volume was added thereto first, vortexed and mixed evenly for 2 min, sonicated for 30 min, stirred for 2 hours until no visible particles were visible to the naked eye, and the drug was administered while stirring, and the middle layer of the drug solution was taken for drug administration.
Rats: SD rats, SPF grade, 3 males, weight range of 220 to 300 g (source: SPF (Beijing) Biotechnology Co., Ltd., certificate number: 110324200103216838); • feeding conditions: ordinary animal house feeding, free access to food and water, 3 animals/cage rearing, 12/12 hours light/dark cycle adjustment (7:00 am/7:00 pm), temperature of 23±1° C.
Dispensing: After accurately weighing compound 1-6 in the PO group, 5% solutol of the required volume was added first, vortexed and mixed evenly for 2 min, sonicated for 30 min, stirred for 3 hours until no visible particles were visible to the naked eye; • the drug solution was prepared and used immediately, and a sample of the drug solution must be retained for analysis, and two samples of 100 μL each of the upper, middle, and lower suspensions were taken and sent for analysis and testing on the same day.
The rats were randomly divided into 3 groups according to body weight, and the specific grouping and administration are as follows:
• 1. The animals in the PO group were fasted overnight with free access to water before administration, and the food was returned 4 hours after administration; • 2. time points for blood sampling: the time points for blood sampling in the PO group were 0.167, 0.5, 1, 2, 3, 4, 6, 9, 12, and 24 hours.
• 1. The animals in the PG group were fasted overnight with free access to water before administration, and the food was returned 4 hours after administration; • 2. time points for blood sampling: the time points for blood sampling in the PG group were 0.167, 0.5, 1, 2, 3, 4, 6, 9, 12, and 24 hours.
After administration to rats, blood was collected from the orbital venous plexus according to the sampling time points. About 0.2 to 0.3 mL of blood was collected at each time point and transferred to an anticoagulant EP tube (containing 4 μL of EDTA-K2, 375 mg/mL). The tube was gently inverted three times and stored in an ice box (not exceeding 30 minutes). After centrifugation at 3500×g for 10 minutes at 4° C., the supernatant was transferred to a labeled EP tube. Hemolysis was observed and recorded, and the sample was sent to bioassay for testing. If the sample could not be analyzed the same day, the sample was stored at −80° C. until further testing (be careful not to perform multiple freezing/thawing processes). […]

Data set [2] is described as follows: Liver microsome half-life assay, human. To be noted: human, liver microsomes; 1 mg/mL liver microsomal protein, 37° C.; read-out: Liver microsome T½ (min) Human. The data set is classed as in vitro ADME. The method, then: The in vitro metabolic stability of the compounds of the present disclosure was determined using warm incubation method of liver microsomes in various species. A proper amount of test compound was added to the liver microsomal reaction system (1 mg/mL liver microsomal protein, 25 U/mL glucose-6-phosphate dehydrogenase, 1 mM NADP, 6 mM D-glucose 6-phosphate, 5 mM MgCl2), and the reaction was started by warm incubation in a water bath at 37° C., then 100 μL of the reaction mixture at each time point was added to a centrifuge tube containing 400 μL of internal standard working solution precooled at 0° C. (containing a solution of 200 ng/mL dexamethasone, diclofenac, tolbutamide, and labetalol in acetonitrile), then the reaction was terminated, centrifuged at 4° C. and 10,000 g for 10 min, and the supernatant was taken into LC-MS for analysis and detection to obtain in vitro metabolic half-lives of the test compounds in liver microsomes of various species.

[3] abbreviates: analyte compound 1-6, mean value.

In data set [1] (analyte compound 1-6, animal 4), `O=C(c1ccc(F)cc1C(F)(F)F)c1cnc2n1CCN(c1cn[nH]c(=O)c1Cl)C2` [Compound 1-6, 4-chloro-5-(3-(4-fluoro-2-(trifluoromethyl)benzoyl)-5,6-dihydroimidazo[1,2-a]pyrazin-7(8H)-yl)pyridazin-3(2H)-one] displayed an AUC(0-inf) of 14500 ng·h/mL, an area under the curve AUC(0-t) of 13500 ng·h/mL, a Cmax of 1210 ng/mL and a mean residence time MRT last of 8.03 h. Moreover, in data set [1] (analyte compound 1-6, animal 4), the half-life is 5.95 h and the Tmax was found to be 4 h. Also, in data set [1] (analyte compound 1-6, animal 5), the area under the curve AUC(0-inf) came out at 11500 ng·h/mL, the area under the curve AUC(0-t) is 11200 ng·h/mL, the peak level (Cmax) was 1290 ng/mL and the mean residence time (MRT last) came out at 6.38 h. This molecule showed a half-life in data set [1] (analyte compound 1-6, animal 5) of 4.09 h. In data set [1] (analyte compound 1-6, animal 6), the AUC(0-inf) was found to be 27500 ng·h/mL, the AUC(0-t) came out at 18200 ng·h/mL, the Cmax worked out at 1150 ng/mL and the MRT last stood at 10 h. The molecule also gave a half-life in data set [1] (analyte compound 1-6, animal 6) of 14.5 h. In data set [1] (setting [3]), this molecule came in with an AUC(0-inf) of 17800 ng·h/mL, an AUC(0-t) of 14300 ng·h/mL, a Cmax of 1220 ng/mL and a mean residence time (MRT last) of 8.15 h. This molecule also gave a half-life in data set [1] (setting [3]) of 5.02 h. Besides, in data set [2], the half-life was 531 min.

By AUC(0-inf) is commonly meant total exposure, with the tail of the curve extrapolated. A higher AUC(0-inf) goes with high exposure. For orientation: AUC(0-t) means the area under the concentration-time curve up to a stated or last time point. A high value points to high exposure. The Cmax is the maximum level reached in the sampled fluid or tissue. One may read the MRT last as the average time that molecules of a dose stay in the body. For orientation: Tmax means the time at which the peak concentration occurs.
